Laboratory results taken from ChEMBL document CHEMBL2169878 (J Med Chem, 2012).
The source made the active and inactive calls. No cut-off for these calls is given here.

Columns and labels:
Plasmodium falciparum [1] = test: Antiplasmodial activity against chloroquine-resistant Plasmodium falciparum W2 infected in human RBC after 72 hrs by parasite lactate dehydrogenase assay; type: functional, organism-based; settings: W2, 72 h
Plasmodium falciparum [2] = test: Antiplasmodial activity against chloroquine-sensitive Plasmodium falciparum D10 infected in human RBC after 72 hrs by parasite lactate dehydrogenase assay; type: functional, organism-based; settings: D10, 72 h
Plasmodium falciparum [3] = test: Resistance ratio of IC50 for chloroquine-resistant Plasmodium falciparum W2 to IC50 for chloroquine-sensitive Plasmodium falciparum D10; type: functional
Plasmodium falciparum [4] = test: Resistance ratio of IC50 for chloroquine-resistant Plasmodium falciparum K1 to IC50 for chloroquine-sensitive Plasmodium falciparum NF54; type: functional
Plasmodium falciparum [5] = test: Antiplasmodial activity against chloroquine-sensitive Plasmodium falciparum NF54 infected in human erythrocytes assessed as inhibition of [3H]hypoxanthine incorporation incubated for 48 hrs prior to [3H]hypoxanthine addition measured after 48 hrs by liquid scintillation counting; type: functional, organism-based
Plasmodium falciparum [6] = test: Antiplasmodial activity against chloroquine-resistant Plasmodium falciparum K1 infected in human erythrocytes assessed as inhibition of [3H]hypoxanthine incorporation incubated for 48 hrs prior to [3H]hypoxanthine addition measured after 48 hrs by liquid scintillation counting; type: functional, organism-based
[7] = biological target: T1, Chloroquine resistance transporter (Plasmodium falciparum) (UniProt Q9N623); test: Inhibition of chloroquine-resistant Plasmodium falciparum Dd2 CRT expressed in Xenopus laevis oocyte assessed as inhibition of [3H]chloroquine uptake at 100 uM measured from 1 to 2 hrs
T1 sequence (whole entry): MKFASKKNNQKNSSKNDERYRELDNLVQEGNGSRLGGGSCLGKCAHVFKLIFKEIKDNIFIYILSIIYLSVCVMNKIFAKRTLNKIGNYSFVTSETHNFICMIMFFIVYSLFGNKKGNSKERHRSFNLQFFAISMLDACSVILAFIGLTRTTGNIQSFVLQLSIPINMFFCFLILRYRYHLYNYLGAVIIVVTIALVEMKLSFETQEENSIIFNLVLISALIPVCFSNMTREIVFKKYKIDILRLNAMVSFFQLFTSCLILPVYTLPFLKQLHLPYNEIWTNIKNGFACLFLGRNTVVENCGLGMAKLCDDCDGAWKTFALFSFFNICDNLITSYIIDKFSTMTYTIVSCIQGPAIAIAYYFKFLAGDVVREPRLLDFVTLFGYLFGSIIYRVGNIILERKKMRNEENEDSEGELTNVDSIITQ

[8] = Cytotoxicity against mouse NIH3T3 cells after 24 hrs by neutral red dye uptake assay; type: cell-based; settings: read-out: TC50
[9] = Cytotoxicity against human HepG2 cells after 24 hrs by neutral red dye uptake assay; type: cell-based; settings: read-out: TC50

Structure (SMILES) | IC50 (Plasmodium falciparum [1]) [nM] | IC50 (Plasmodium falciparum [2]) [nM] | Ratio IC50 (Plasmodium falciparum [3]) | Ratio IC50 (Plasmodium falciparum [4]) | IC50 (Plasmodium falciparum [5]) [nM] | IC50 (Plasmodium falciparum [6]) [nM] | inhibition [7] | CC50 at 24 h [8] [nM] | CC50 at 24 h [9] [nM]
COc1cc(C(Nc2ccnc3cc(Cl)ccc23)c2ccc(Cl)cc2)ccc1CN1CCCC1 (racemic) | 48 | 31 |  |  |  |  |  |  | 
COc1ccc2nccc(NC(c3ccc(Cl)cc3)c3ccc(CN4CCNCC4)cc3)c2c1 (racemic) | 163 | 67 | 2.4 | 2.8 | 21 | 58 |  |  | 
CN1CCN(Cc2ccc(C(Nc3ccnc4cc(Cl)ccc34)c3ccc(Cl)cc3)cc2)CC1 (racemic) | 42 | 21 | 2 |  |  |  | Active |  | 
Clc1ccc(C(Nc2ccnc3cc(Cl)ccc23)c2ccc(CN3CCN(Cc4ccccc4)CC3)cc2)cc1 (racemic) | 790 | 163 | 4.8 |  |  |  |  |  | 
Clc1ccc(C(Nc2ccnc3cc(Cl)ccc23)c2ccc(CN3CCN(Cc4ccc(C(Nc5ccnc6cc(Cl)ccc56)c5ccc(Cl)cc5)cc4)CC3)cc2)cc1 (racemic) | 98 | 190 | 0.5 | 0.6 | 89 | 56 |  |  | 
Clc1ccc(C(c2ccc(CN3CCCC3)cc2)N2CCN(c3ccnc4cc(Cl)ccc34)CC2)cc1 (racemic) | 735 | 631 |  |  | 88 | 156 | 58% |  | 
Clc1cccc(C(Nc2ccnc3cc(Cl)ccc23)c2ccc(CN3CCN(c4ccnc5cc(Cl)ccc45)CC3)c(Cl)c2)c1 (racemic) | 58 | 104 |  |  | 83 | 10 |  |  | 
Clc1cccc(C(Nc2ccnc3cc(Cl)ccc23)c2ccc(CN3CCCC3)c(Cl)c2)c1 (racemic) | 50 | 57 |  |  | 13 | 19 |  |  | 
Fc1cc(C(Nc2ccnc3cc(Cl)ccc23)c2cccc(Cl)c2)ccc1CN1CCCC1 (racemic) | 25 | 9 |  |  |  |  | 70% |  | 
Clc1ccc(C(Nc2ccnc3cc(Cl)ccc23)c2ccc(CN3CCCC3)cc2)cc1 (racemic) |  |  | 1.6 | 1.1 |  |  | 70% |  | 
Clc1ccc(C(c2ccccc2)(c2ccc(CN3CCCC3)cc2)n2ccnc2)cc1 (racemic) |  |  |  |  |  |  | Active |  | 
Clc1ccccc1C(c1ccccc1)(c1ccccc1)n1ccnc1 [CLOTRIMAZOLE] |  |  |  |  |  |  |  | > 48000 | > 48000
